Values quoted from earlier work, collected in US5298246A, “Stable pharmaceutical composition and method for its production” (Kanegafuchi Kagaku Kogyo Kabushiki Kaisha, priority 1991, dated 1994).

absorbability upon oral administration: low
Compound: COC1=C(OC)C(=O)C(C/C=C(\C)CC/C=C(\C)CC/C=C(\C)CC/C=C(\C)CC/C=C(\C)CC/C=C(\C)CC/C=C(\C)CC/C=C(\C)CC/C=C(\C)CCC=C(C)C)=C(C)C1=O [ubidecarenone]
